# Structures can show the parent of a compound that is named as a salt. Where two headings read alike, the source gives them in different places. Square brackets hold non-standard residues; d marks the D form. Peptide text beside a SMILES is read from it. * marks the point of attachment. pNA = O=[N+]([O-])c1ccc(N*)cc1; 4Abz = Nc1ccc(C(=O)O)cc1; Tfa = O=C(C(F)(F)F)*; NHPh = c1ccc(N*)cc1
# What was measured:
# leucocytal elastase [1] = biological target: T1, leucocytal elastase (Homo sapiens, UniProt P08246); assay: I50 on leucocytal elastase, hydrolysis of succinyl-tri-alanine-paranitroanilide at 10^-3 M; type: biochemical; conditions: 25° C., TRIS 0.2 M buffer, pH 8; substrate 10^-3 M; in the presence of 50 % dimethylformamide (footnote); read-out: T 50^ (b) leucocytal
# T1 construct: This latter was purified according to the Travis method; from tissue
# T1 sequence (P08246 30-267): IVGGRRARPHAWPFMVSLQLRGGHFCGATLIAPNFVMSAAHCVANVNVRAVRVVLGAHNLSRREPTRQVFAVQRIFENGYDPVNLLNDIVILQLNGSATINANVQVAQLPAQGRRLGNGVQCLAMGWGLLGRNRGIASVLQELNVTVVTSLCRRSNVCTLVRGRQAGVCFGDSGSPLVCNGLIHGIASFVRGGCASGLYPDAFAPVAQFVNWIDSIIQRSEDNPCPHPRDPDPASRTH
# Text: (§1) This latter was purified according to the Travis method (Baugh, R. J. and Travis, J. (1976), Biochemistry, 15, 4, 836). The method of study used is the conventional method of Dixon (Dixon, M., (1953), Biochemical Journal, 55, 1970) for measuring the inhibition constants KI of the compounds of the invention with regard to the hydrolysis reactions of the succinyl-tri-L-alanine-paranitroanilide catalysed by the two above elastases (Bieth J., Spiess B. and Wermuth C. G. (1974) Biochemical Medicine, 11, 350). In certain cases (leucocytal elastase) the inhibitory power of the compounds studied was measured by means of the I50 concentration of these compounds inducing 50% inhibition of the hydrolysis of the succinyl-tri-alanine-paranitroanilide at a 10^-3 M concentration catalysed by the enzyme. […] All the measurements were made at 25° C. in a 0.2 Molar buffer solution of tri-hydroxymethyl-aminomethane at pH 8.
# [2] = biological target: T2, porcine pancreatic elastase (Sus scrofa, UniProt P00772); assay: Inhibition constant KI (Dixon method) on pancreatic elastase, hydrolysis of succinyl-tri-L-alanine-paranitroanilide; type: biochemical; conditions: 25° C., TRIS 0.2 M buffer, pH 8; absence of any organic solvent; read-out: K T^ (a) pancreatic
# T2 sequence (P00772 27-266): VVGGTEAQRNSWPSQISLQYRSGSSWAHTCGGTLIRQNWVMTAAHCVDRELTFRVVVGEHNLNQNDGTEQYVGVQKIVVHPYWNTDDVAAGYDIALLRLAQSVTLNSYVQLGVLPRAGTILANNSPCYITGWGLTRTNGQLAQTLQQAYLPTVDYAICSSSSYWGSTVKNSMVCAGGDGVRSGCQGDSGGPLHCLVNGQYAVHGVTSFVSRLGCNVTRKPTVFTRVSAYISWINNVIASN
# Text: as §1
# (§2) Table E below lists the results obtained for the compounds of formula (I) as well as the reference compounds (A), acetyl-L-prolyl-L-alanyl-L-prolyl-L-alaninal, for the pancreatic elastase (Thompson, R. C., Biochemistry (1973), 17, 1, 47) and (B), oleic acid, for the leucocytal elastase (Ashe, B. M. and Zimmerman, M. (1977), Biochem. Biophys. Res. Comm., 75, 194).
# leucocytal elastase [3] = biological target: T1, leucocytal elastase; assay: Inhibition constant KI (Dixon method) on leucocytal elastase, hydrolysis of succinyl-tri-L-alanine-paranitroanilide; type: biochemical; conditions: 25° C., TRIS 0.2 M buffer, pH 8; absence of any organic solvent; read-out: K T^ (a) leucocytal
# Text: as §1, §2
# [4] = biological target: T2, porcine pancreatic elastase; conditions: reference compound, Thompson, Biochemistry (1973); read-out: K T^ (a) pancreatic; cited from earlier work
# mice = assay: Intravenous toxicity on mice; type: in vivo; conditions: intravenously, 20, 40 and 80 mg/kg, solution in physiological serum containing 10% DMF
# Method: Furthermore, the toxicity of the compounds of the invention were studied intravenously on mice. More exactly, these compounds were tested in the form of a solution in physiological serum containing 10% DMF.
# It is to be noted that it was not possible to use doses higher than those indicated above, because of the solubility limit of compound 3.
# leucocytal elastase [5] = biological target: T1, leucocytal elastase; conditions: reference compound, Ashe and Zimmerman (1977); read-out: K T^ (a) leucocytal; cited from earlier work
IC50 (leucocytal elastase [1]) [nM],Ki [2] [nM],Ki (leucocytal elastase [3]) [nM],SMILES,Ki [4] [nM],mortality (mice),Ki (leucocytal elastase [5]) [nM]
250000,250,,C[C@H](NC(=O)[C@H](C)NC(=O)C(F)(F)F)C(=O)Nc1ccccc1 [compound 1] (Tfa-Ala-Ala-NHPh),,,
12000,550,,CC(C)c1ccc(NC(=O)[C@H](C)NC(=O)[C@H](C)NC(=O)C(F)(F)F)cc1 [compound 8],,,
100000,110,,C[C@H](NC(=O)[C@H](C)NC(=O)C(F)(F)F)C(=O)Nc1ccc(Cl)cc1 [compound 2],,,
150000,400,,C[C@H](NC(=O)C(F)(F)F)C(=O)N[C@@H](CCCCN)C(=O)Nc1ccc(C(F)(F)F)cc1 [compound 19],,,
5700,50,700,CC(C)c1ccc(NC(=O)[C@H](C)NC(=O)[C@H](CCCCN)NC(=O)C(F)(F)F)cc1 [compound 14],,,
56000,90,,C[C@H](NC(=O)[C@H](C)NC(=O)C(F)(F)F)C(=O)Nc1ccc(C(F)(F)F)cc1 [compound 5],,,
,,,"CC(=O)N1CCC[C@H]1C(=O)N[C@@H](C)C(=O)N1CCC[C@H]1C(=O)N[C@@H](C)C=O [A, acetyl-L-prolyl-L-alanyl-L-prolyl-L-alaninal] (Ac-PAPA-aldehyde)",800,,
120000,800,,C[C@H](NC(=O)[C@H](C)NC(=O)C(F)(F)F)C(=O)Nc1cccc(C(F)(F)F)c1 [compound 6],,,
150000,380,,C[C@H](NC(=O)[C@H](C)NC(=O)C(F)(F)F)C(=O)Nc1cccc([N+](=O)[O-])c1 [compound 4],,,
,,,"CCCCCCCC/C=C\CCCCCCCC(=O)O [B, oleic acid]",,,9000
50000,30,14000,Cc1ccc(NC(=O)[C@H](C)NC(=O)[C@H](CCCCN)NC(=O)C(F)(F)F)cc1 [compound 13],,,
30000,290,,COc1ccc(NC(=O)[C@H](C)NC(=O)[C@H](C)NC(=O)C(F)(F)F)cc1 [compound 7],,,
100000,110,,C[C@H](NC(=O)[C@H](C)NC(=O)C(F)(F)F)C(=O)Nc1ccc(C#N)cc1 [compound 9],,,
400000,270,,CC(NC(=O)C(F)(F)F)C(=O)NC(C(=O)Nc1ccccc1)C(F)(F)F (mixture of isomers) [compound 17],,,
9000,32,2500,CC(=O)c1ccc(NC(=O)[C@H](C)NC(=O)[C@H](CCCCN)NC(=O)C(F)(F)F)cc1 [compound 16],,,
150000,40,44000,C[C@H](NC(=O)[C@H](CCCCN)NC(=O)C(F)(F)F)C(=O)Nc1ccccc1 [compound 11] (Tfa-Lys-Ala-NHPh),,,
470000,200,,C[C@H](NC(=O)[C@H](C)NC(=O)C(F)(F)F)C(=O)Nc1ccc(C(=O)O)cc1 [compound 10] (Tfa-Ala-Ala-[4Abz]-OH),,,
35000,25,3000,C[C@H](NC(=O)[C@H](CCCCN)NC(=O)C(F)(F)F)C(=O)Nc1ccc(C(F)(F)F)cc1 [compound 12],,,

SMILES,IC50 (leucocytal elastase [1]) [nM],Ki [2] [nM],Ki (leucocytal elastase [3]) [nM],Ki [4] [nM],mortality (mice),Ki (leucocytal elastase [5]) [nM]
"C[C@H](NC(=O)[C@H](C)NC(=O)C(F)(F)F)C(=O)Nc1ccc([N+](=O)[O-])cc1 [Code number 3, N-trifluoroacetyl-L-alanyl-L-alanyl-p-nitroanilide] (Tfa-Ala-Ala-pNA)",78000,120,,,no case of mortality was observed,

# Source: patent publication US4153688A, “Trifluoromethylated oligopeptides” (Delalande S.A., priority 1977, dated 1979)
